Laboratory results: patent US3951979A, “New amino propanediol derivatives” (priority 1972, dated 1976)
Like-named read-outs stand apart in the source and are kept apart here.

What was measured:
[1] = system: carotid arterial blood-pressure; assay: Effect on carotid arterial blood-pressure of the dog anaesthetised with chloralose; assay type: in vivo; conditions: for Hypotensive effect (in words): in vivo
Protocol: EFFECT ON ARTERIAL BLOOD-PRESSURE This was measured on the dog anaesthetised with chloralose by recording both the extent of, and the duration of, the effect on carotid arterial blood-pressure.

apomorphine = assay: Anti-apomorphic effect in the rat; assay type: in vivo; parameters: Anti-apomorphine: unit not given here; conditions: for Anti-apomorphine: apomorphine 0.6 mg/kg; for Activity in apomorphine stereotypes (in words): in vivo
[2] = system: mebubarbital-induced sleep; assay: Potentiation of an inactive dose of a barbiturate (mebubarbital); assay type: in vivo; conditions: for ED50: 0.25 h, read-out: Barbiturates (potentiation), ED50
cerebral dopamine = assay: Biochemical dopamine effect on the brain (spectrofluorometric); assay type: in vivo, mouse (strain OF1); conditions: mouse; for Cerebral dopamine / Cerebral dopamine (result in words): I.P.; for Cerebral dopamine (result in words): dose not given
Protocol: 7. Biochemical dopamine effect on the brain This effect is measured by spectrofluorometric means using the Jobin-Yvon Bearn apparatus, on the brains of mice of the strain OF1.

[3] = Acute toxicity, LD50, oral administration; conditions: in vivo, mouse
Protocol: 1. Acute toxicity -- LD50 -- Oral administration
This was determined upon the mouse by oral administration, the LD50 value being calculated by the method of B. Behrens & C. Karber (Arch F. Exp. Patho. Pharm., volume 177, page 379 (1935) )

rat = assay: Cataleptic effect, homolateral crossed paws method; assay type: in vivo; parameters: Catalepsy: unit not given here; conditions: for Catalepsy / Catalepsy, result at stated dose: I.P.; for Cataleptic effect (in words): in vivo
central nervous system = assay: Effect on the central nervous system, overall psycholeptic/neuroleptic spectrum; conditions: in vivo
Excerpt: EFFECT ON THE CENTRAL NERVOUS SYSTEM
This effect was observed by means of a set of tests of which the most significant are summarised below: […]

[4] = system: apomorphine-induced vomiting; assay: Anti-emetic effect: apomorphine-induced attempted vomits in beagle dogs; assay type: in vivo; conditions: dog
Protocol: The anti-emetic effect, which may constitute a contributory factor to the main effect, was also systematically tested in accordance with the following procedure:
Dogs of the beagle breed were split up at random into groups of 3 animals. After fasting for 24 hours, the animals were given an empty capsule then, one hour later, received a sub-cutaneous injection of apomorphine hydrochloride (0.3 mg/kg). The number of attempted vomits during 45 minutes was then counted.
After 15 days rest, the same animals were given a capsule identical to that given on the first occasion but containing the product to be tested. The injection of apomorphine was carried out under the same conditions as for the control experiment.

coughing spasms = assay: Antitussive effect: inhibition of coughing spasms induced by stimulating a laryngeal nerve; assay type: in vivo, cat; conditions: for Activity of the product (antitussive) / Duration of activity (antitussive): cat
Excerpt: Finally, the compounds of the invention having shown themselves to be powerful antitussive agents, the results of comparative tests for this activity on four compounds of the invention and on pentoxyverine, one of the most powerful antitussive agents at present known, are given below in Table V.
The technique used was the method of R. Domenjoz, Arch. Exp. Pathol. V. Pharmacol. Volume 215, page 19 (1952)
The cat is anaesthetized with ether and tracheotomised.
Coughing spasms are induced by stimulating a laryngeal nerve. After the product to be tested has been administered, fresh stimulation enables the inhibition achieved and its duration to be assessed.

[5] = Canis lupus familiaris, 1.25 mg/kg intravenous
[6] = oral administration, sleep in 50% of animals 15 minutes after product

C#CC(C)(C)OCC(O)CN1CCN(c2ccccc2)CC1 (stereo not drawn) [Compound No. 1]
Duration of activity (blood-pressure) ([1]; 1.25 mg/kg intravenous): ≥ 35 min | change in vivo at 1.25 mg/kg [1, 5]: -20.3%

C#CC1(OCC(O)CN2CCN(c3ccccc3)CC2)CCCCC1 (stereo not drawn) [Compound No. 2]
Anti-apomorphine (apomorphine; subcutaneous): 50 | ED50 [2, 6]: 100 mg/kg | Cerebral dopamine (cerebral dopamine; at 40 mg/kg): -33% | LD50 [3]: > 600 mg/kg | Catalepsy (rat): 50

C#CC(C)(CC)OCC(O)CN1CCN(c2ccccc2)CC1 (stereo not drawn) [Compound No. 3]
Neuroleptic/psycholeptic activity (in words) (central nervous system): only slightly neuroleptic | ED50 [2, 6]: > 100 mg/kg | Cerebral dopamine (cerebral dopamine; at 60 mg/kg): -45% | Duration of activity (blood-pressure) ([1]; 1.25 mg/kg intravenous): 35 min | change in vivo at 1.25 mg/kg [1, 5]: -21.5% | Hypotensive effect (in words) [1]: markedly hypotensive | LD50 [3]: > 600 mg/kg | Catalepsy, result at stated dose (rat; at 40): Inactive

C#CC1(OCC(O)CN2CCN(c3ccc(F)cc3)CC2)CCCCC1 (stereo not drawn) [Compound No. 4, 1-3-(1-ethynyl)cyclohexyloxy-2-hydroxy propyl-4-(4-fluorophenyl)piperazine]
Anti-apomorphine (apomorphine; O.A.): 92 | Neuroleptic/psycholeptic activity (in words) (central nervous system): fairly full spectrum characteristic of neuroleptic activity | ED50 [2, 6]: 20 mg/kg | Reduction in attempted vomits ([4]; 1 mg/kg subcutaneous): 74% | Cerebral dopamine (cerebral dopamine; at 10 mg/kg): -50% | Depletion of cerebral mono-amines (in words) (cerebral dopamine; in vivo): depletion of cerebral mono-amines in a manner reminiscent of reserpine | Duration of activity (blood-pressure) ([1]; 5 mg/kg intravenous): 20 min | change in vivo at 5 mg/kg ([1]; Canis lupus familiaris, 5 mg/kg intravenous): -50% | LD50 [3]: 800 mg/kg | Catalepsy (rat): 20

C#CC1(OCC(O)CN2CCN(c3cccc(C(F)(F)F)c3)CC2)CCCCC1 (stereo not drawn) [Compound No. 11]
Anti-apomorphine (apomorphine; O.A.): 15 | Activity in apomorphine stereotypes (in words) (apomorphine): extremely active in apomorphine stereotypes | Sedative effect (in words) (central nervous system): fairly sedative | ED50 [2, 6]: 90 mg/kg | Reduction in attempted vomits ([4]; 10 mg/kg oral): 75% | Cerebral dopamine (result in words) (cerebral dopamine): Inactive | Duration of activity (blood-pressure) ([1]; 1.25 mg/kg intravenous): 30 min | change in vivo at 1.25 mg/kg [1, 5]: -15% | Hypotensive effect (in words) [1]: slightly hypotensive | LD50 [3]: 783 mg/kg | Catalepsy, result at stated dose (rat; at 40): Inactive | Cataleptic effect (in words) (rat): slightly cataleptic

C#CC1(OCC(O)CN2CCN(c3ccccc3OC)CC2)CCCCC1 (stereo not drawn) [Compound No. 20, 1-3-(1-ethynyl)cyclohexyloxy-2-hydroxy-propyl-4-(2-methoxy)phenylpiperazine]
Anti-apomorphine (apomorphine; I.P.): 5 | Activity in apomorphine stereotypes (in words) (apomorphine): active in apomorphine stereotypes | Sedative effect (in words) (central nervous system): non-sedative | Barbiturates (potentiation), ED50 [2, 6]: Inactive | Reduction in attempted vomits ([4]; 1 mg/kg oral): 100% | Reduction in attempted vomits ([4]; 1 mg/kg subcutaneous): 100% | Inhibition of the emetic effect of apomorphine compared with metoclopramide ([4]; oral administration): superior to that of metoclopramide | Inhibition of the emetic effect of apomorphine compared with metoclopramide ([4]; subcutaneous injection): equal to that of metoclopramide | Cerebral dopamine (result in words) (cerebral dopamine): Inactive | Duration of activity (blood-pressure) ([1]; 1.25 mg/kg intravenous): ≥ 70 min | change in vivo at 1.25 mg/kg [1, 5]: -35.6% | Hypotensive effect (in words) [1]: especially hypotensive | LD50 [3]: 60 mg/kg | Catalepsy, result at stated dose (rat; at 20): Inactive | Cataleptic effect (in words) (rat): non-inducive of catalepsy

C#CC(C)(CC)OCC(O)CN1CCN(CC(OCC)c2ccccc2)CC1 (stereo not drawn) [Compound No. 25, 1-3-(1-methyl-1-ethynyl)propoxy-2-hydroxy propyl-4-(2-ethoxy-2-phenyl)ethylpiperazine]
Activity of the product (antitussive) (coughing spasms; 5 mg/kg body weight): 41% | Duration of activity (antitussive) (coughing spasms; 5 mg/kg body weight): > 35 min | Activity of the product (antitussive) (coughing spasms; 7.5 mg/kg body weight): 49% | Duration of activity (antitussive) (coughing spasms; 7.5 mg/kg body weight): 62 min | Activity of the product (antitussive) (coughing spasms; 10 mg/kg body weight): 71% | Duration of activity (antitussive) (coughing spasms; 10 mg/kg body weight): 80 min | Dose of pentoxyverine necessary for comparable antitussive effect, relative to compound (coughing spasms; versus pentoxyverine): five times greater

O=C(CCCN1CCC(O)(c2ccc(Cl)cc2)CC1)c1ccc(F)cc1 [Haloperidol, haloperidol, reference compound]
Anti-apomorphine (apomorphine; subcutaneous): 0.5 | ED50 ([2]; po): 12 mg/kg | Cerebral dopamine (cerebral dopamine; at 10 mg/kg): -30% | LD50 [3]: 125 mg/kg | Catalepsy (rat): 1

CCN(CC)CCNC(=O)c1cc(Cl)c(N)cc1OC [Metoclopramide, metoclopramide, reference compound]
Reduction in attempted vomits ([4]; 1 mg/kg subcutaneous): 100% | Reduction in attempted vomits ([4]; 1.5 mg/kg oral): 100%
